Measurements: the NIST ThermoML archive (doi:10.1021/acs.jced.5b00820)

Assay: refractive index (Na D-line) (dimensionless); xn = mol fraction of the nth substance listed
Conditions: 102.2 kPa, Liquid, Standard Abbe refractometry

C[Si](C)(O[Si](C)(C)c1ccccc1)c1ccccc1 [1,3-diphenyltetramethyldisiloxane] + C=C[Si](C)(C)O[Si](C)(C)C=C
refractive index
Conditions | 308.15 K | 313.15 K | 318.15 K | 323.15 K | 328.15 K
x1 = 0.0502 | 1.41155 | 1.40892 | 1.40628 | 1.40366 | 1.40099
x1 = 0.1 | 1.41834 | 1.41574 | 1.41315 | 1.41057 | 1.40797
x1 = 0.1487 | 1.42478 | 1.42224 | 1.41967 | 1.41713 | 1.41456
x1 = 0.2002 | 1.43134 | 1.42886 | 1.42631 | 1.42381 | 1.42128
x1 = 0.2498 | 1.43748 | 1.43501 | 1.43251 | 1.43004 | 1.4275
x1 = 0.3 | 1.44347 | 1.44103 | 1.43853 | 1.43607 | 1.43356
x1 = 0.3503 | 1.4493 | 1.44687 | 1.4444 | 1.44199 | 1.43951
x1 = 0.3994 | 1.45477 | 1.45239 | 1.44994 | 1.44752 | 1.44508
x1 = 0.4502 | 1.46032 | 1.45792 | 1.45549 | 1.45314 | 1.45071
x1 = 0.5001 | 1.46558 | 1.46321 | 1.46081 | 1.45844 | 1.45605
x1 = 0.5498 | 1.47066 | 1.46834 | 1.46594 | 1.4636 | 1.4612
x1 = 0.6002 | 1.47565 | 1.47332 | 1.47093 | 1.46859 | 1.46619
x1 = 0.6502 | 1.48048 | 1.47816 | 1.47577 | 1.47346 | 1.47107
x1 = 0.7004 | 1.48515 | 1.48285 | 1.48049 | 1.47821 | 1.47583
x1 = 0.7504 | 1.48971 | 1.48739 | 1.48506 | 1.48275 | 1.48038
x1 = 0.8003 | 1.4941 | 1.49177 | 1.48948 | 1.48715 | 1.48483
x1 = 0.8498 | 1.49836 | 1.49606 | 1.49375 | 1.49142 | 1.48912
x1 = 0.8986 | 1.50242 | 1.50013 | 1.49781 | 1.49552 | 1.4932
x1 = 0.9502 | 1.50659 | 1.50428 | 1.50198 | 1.49974 | 1.49743
x1 = 1 | 1.51052 | 1.5082 | 1.50593 | 1.50366 | 1.50133
